Source: ChEMBL document CHEMBL5143733, “Discovery of (E)-3-(3-((2-Cyano-4'-dimethylaminobiphenyl-4-ylmethyl)cyclohexanecarbonylamino)-5-fluorophenyl)acrylic Acid Methyl Ester, an Intestine-Specific, FXR Partial Agonist for the Treatment of Nonalcoholic Steatohepatitis” (J Med Chem, 2022)
Values belong to the molecule of their own block, whether it stands above or below them. Calls of active or inactive are those of the source. The rule behind the calls is not given here.

Legend:
[1] = target: Peroxisome proliferator-activated receptor delta (Homo sapiens, UniProt Q03181); assay: Agonist activity at human PPAR-delta expressed in CHO-K1 cells by PathHunter assay; type: cell-based
[2] = Toxicity in CDAHFD-induced nonalcoholic steatohepatitis C57BL/6J mouse model assessed as change in body weight at 80 mg/kg, po administered daily for 4 weeks; type: organism-based; conditions: in vivo, 672 h
[3] = Stability in Sprague-Dawley rat plasma at 80 mg/kg, po measured after 5 hrs by RP-HPLC analysis; type: ADME, organism-based; conditions: in vivo
[4] = Toxicity in CDAHFD-induced nonalcoholic steatohepatitis C57BL/6J mouse model assessed as increase in liver wet weight at 80 mg/kg, po administered daily for 4 weeks […]; type: organism-based; conditions: in vivo, 672 h
[5] = target: T1, Bile acid receptor (Mus musculus) (UniProt Q60641); assay: In vivo activation of FXR in CDAHFD-induced nonalcoholic steatohepatitis C57BL/6J mouse model assessed as induction of IBABP gene expression at 80 mg/kg, po administered daily for 4 weeks; type: functional, organism-based
T1 sequence (whole entry): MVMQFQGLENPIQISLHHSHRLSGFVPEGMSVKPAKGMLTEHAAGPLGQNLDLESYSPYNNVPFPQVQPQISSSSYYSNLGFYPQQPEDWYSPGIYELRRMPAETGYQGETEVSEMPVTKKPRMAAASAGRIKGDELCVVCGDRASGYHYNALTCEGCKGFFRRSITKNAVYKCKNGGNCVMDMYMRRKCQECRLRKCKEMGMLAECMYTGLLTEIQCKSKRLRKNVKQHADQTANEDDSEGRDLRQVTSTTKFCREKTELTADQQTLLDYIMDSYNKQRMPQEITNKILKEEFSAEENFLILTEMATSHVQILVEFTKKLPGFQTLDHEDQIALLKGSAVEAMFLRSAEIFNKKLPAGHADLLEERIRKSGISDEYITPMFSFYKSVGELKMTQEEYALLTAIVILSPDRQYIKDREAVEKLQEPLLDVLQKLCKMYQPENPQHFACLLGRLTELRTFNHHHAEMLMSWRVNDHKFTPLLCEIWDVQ

[6] = target: T1, Bile acid receptor (Mus musculus); assay: In vivo activation of FXR in CDAHFD-induced nonalcoholic steatohepatitis C57BL/6J mouse model assessed as induction of SHP gene expression at 80 mg/kg, po administered daily for 4 weeks; type: functional, organism-based
[7] = AUClast in Sprague-Dawley rat at 80 mg/kg, po measured up to 24 hrs by HPLC analysis; type: ADME, organism-based; parameters: dose 80 mg/kg, time < 24 hrs, route po; conditions: in vivo
[8] = target: T1, Bile acid receptor (Mus musculus); assay: In vivo activation of FXR in CDAHFD-induced nonalcoholic steatohepatitis C57BL/6J mouse model assessed as induction of FGF15 gene expression at 80 mg/kg, po administered daily for 4 weeks; type: functional, organism-based
[9] = Clearance in Sprague-Dawley rat at 5 mg/kg, iv measured up to 24 hrs by HPLC analysis; type: ADME, organism-based; conditions: in vivo
Mus musculus [10] = assay: Antifibrotic activity in CDAHFD-induced nonalcoholic steatohepatitis C57BL/6J mouse model assessed as reduction in COL1A1 gene expression at 80 mg/kg, po administered daily for 4 weeks; type: functional, organism-based
Mus musculus [11] = assay: Antiinflammatory activity in CDAHFD-induced nonalcoholic steatohepatitis C57BL/6J mouse model assessed as reduction in IL-1beta gene expression at 80 mg/kg, po administered daily for 4 weeks; type: functional, organism-based
[12] = target: T1, Bile acid receptor (Mus musculus); assay: In vivo activation of FXR in […]-induced nonalcoholic steatohepatitis C57BL/6J mouse model assessed as improved glucose tolerance measured up to 120 mins by glucose tolerance test; type: functional
[13] = Toxicity in CDAHFD-induced nonalcoholic steatohepatitis C57BL/6J mouse model assessed as change in amount of food intake at 80 mg/kg, po administered daily for 4 weeks; type: organism-based; conditions: in vivo, 672 h
[14] = Toxicity in CDAHFD-induced nonalcoholic steatohepatitis C57BL/6J mouse model assessed as reduction in serum AST level at 80 mg/kg, po administered daily for 4 weeks; type: organism-based; conditions: in vivo, 672 h
[15] = target: T1, Bile acid receptor (Mus musculus); assay: In vivo activation of FXR in CDAHFD-induced nonalcoholic steatohepatitis C57BL/6J mouse model assessed as reduction in liver fibrosis at 80 mg/kg, po administered daily for 4 weeks by picrosirius red staining method; type: functional, organism-based
[16] = Half life in Sprague-Dawley rat at 5 mg/kg, iv measured up to 24 hrs by HPLC analysis; type: ADME, organism-based; conditions: in vivo
[17] = Drug metabolism in Sprague-Dawley rat plasma assessed as (E)-3-(3-((2-Cyano-4'-dimethylaminobiphenyl-4-ylmethyl)-cyclohexanecarbonylamino)-5-fluorophenyl)acrylic Acid metabolite formation at 5 mg/kg, iv measured up to 20 to 60 mins by RP-HPLC analysis; type: ADME, organism-based; conditions: in vivo, time 20-60 min
[18] = target: T2, Bile acid receptor (Homo sapiens) (UniProt Q96RI1); assay: Partial agonist activity at FXR (unknown origin) expressed in CHO-K1 cells coexpressed with beta-galactosidase incubated for 3 to 16 hrs by PathHunter chemiluminescence based assay relative to GW4064; type: cell-based; conditions: filed as partial agonist, time 3-16 hrs
T2 sequence (whole entry): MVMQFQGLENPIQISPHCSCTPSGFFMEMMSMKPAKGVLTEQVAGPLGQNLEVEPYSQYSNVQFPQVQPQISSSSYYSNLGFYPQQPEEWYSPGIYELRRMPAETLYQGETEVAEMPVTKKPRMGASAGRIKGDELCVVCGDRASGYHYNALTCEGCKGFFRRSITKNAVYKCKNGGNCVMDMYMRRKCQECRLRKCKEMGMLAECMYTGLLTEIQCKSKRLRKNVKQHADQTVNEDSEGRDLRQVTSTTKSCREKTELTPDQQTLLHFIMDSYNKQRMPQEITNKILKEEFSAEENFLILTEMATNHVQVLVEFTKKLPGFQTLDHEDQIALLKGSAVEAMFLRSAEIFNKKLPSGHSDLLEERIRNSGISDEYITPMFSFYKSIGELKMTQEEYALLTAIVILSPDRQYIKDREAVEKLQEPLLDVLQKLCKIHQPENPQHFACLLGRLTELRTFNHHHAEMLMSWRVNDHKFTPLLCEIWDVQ

[19] = Drug metabolism in Sprague-Dawley rat plasma assessed as retention time of unidentified major metabolite at 5 mg/kg, iv upto 1 hr by RP-HPLC analysis; type: ADME, organism-based; conditions: in vivo
[20] = Oral bioavailability in Sprague-Dawley rat at 80 mg/kg measured up to 24 hrs by HPLC analysis; type: ADME, organism-based; conditions: in vivo
[21] = target: T1, Bile acid receptor (Mus musculus); assay: In vivo activation of FXR in CDAHFD-induced nonalcoholic steatohepatitis C57BL/6J mouse model assessed as induction of OST-alpha gene expression at 80 mg/kg, po administered daily for 4 weeks; type: functional, organism-based
[22] = AUClast in Sprague-Dawley rat at 5 mg/kg, iv measured up to 24 hrs by HPLC analysis; type: ADME, organism-based; parameters: time < 24 hrs, dose 5 mg/kg, route iv; conditions: in vivo, 24 h
Mus musculus [23] = assay: Antifibrotic activity in CDAHFD-induced nonalcoholic steatohepatitis C57BL/6J mouse model assessed as reduction in TIMP-1 gene expression at 80 mg/kg, po administered daily for 4 weeks; type: functional, organism-based
[24] = Volume of distribution at steady state in Sprague-Dawley rat at 5 mg/kg, iv measured up to 24 hrs by HPLC analysis; type: ADME, organism-based; conditions: in vivo, read-out: Vdss

Sequence of Peroxisome proliferator-activated receptor delta (Q03181 whole entry): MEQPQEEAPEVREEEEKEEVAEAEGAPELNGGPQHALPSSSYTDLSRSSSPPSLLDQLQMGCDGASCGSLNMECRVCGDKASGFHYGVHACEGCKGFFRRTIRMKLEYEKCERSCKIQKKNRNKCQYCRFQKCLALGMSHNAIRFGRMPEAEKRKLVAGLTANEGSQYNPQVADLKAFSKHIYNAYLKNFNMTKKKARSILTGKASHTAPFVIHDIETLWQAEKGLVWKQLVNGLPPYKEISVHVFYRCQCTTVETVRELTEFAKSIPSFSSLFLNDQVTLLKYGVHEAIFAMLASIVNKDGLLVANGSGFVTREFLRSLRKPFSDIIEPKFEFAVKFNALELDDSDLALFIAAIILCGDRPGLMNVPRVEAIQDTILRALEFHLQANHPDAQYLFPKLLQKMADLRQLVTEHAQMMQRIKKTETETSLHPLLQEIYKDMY

- EC50 [1]: 6 nM
Compound: CCCc1c(OCCCOc2ccc(OCC(=O)O)cc2)ccc(C(C)=O)c1O

- Stability [3]: Unstable
- Activity [5]: Active
- Activity [6]: Active
- AUClast [7]: 1500 ng·h/mL
- Activity [8]: Active
- clearance [9]: 93.3 mL/min/kg
- Activity [15]: Active
- half-life [16]: 4.8 min
- Drug metabolism [17]: Metabolite_Detected
- Emax [18]: 53%
- Retention_time [19]: 5.25 min
- F [20]: 4%
- Activity [21]: Active
- AUClast [22]: 900 ng·h/mL
- Vd [24]: 0.7 L/kg
Compound: COC(=O)/C=C/c1cc(F)cc(N(Cc2ccc(-c3ccc(N(C)C)cc3)c(C#N)c2)C(=O)C2CCCCC2)c1
- Activity [2]: Non-Toxic
- Activity [4]: Non-Toxic
- Activity (Mus musculus [10]): Active
- Activity (Mus musculus [11]): Active
- Activity [12]: Active
- Activity [13]: Non-Toxic
- Activity [14]: Non-Toxic
- Activity (Mus musculus [23]): Active
